Patent US10023601B2, “Hydrolysis resistant sialic acid derivatives and methods for their use” (The University of British Columbia, priority 2014, dated 2018)
Structures can show the parent of a compound that is named as a salt. Where two headings read alike, the source gives them in different places.

Assays:
[1] = Spontaneous hydrolysis of CMP 7-modified sialic acids by 1H-NMR; assay type: physicochemical
Cst-I = Cst-I (Campylobacter jejuni, UniProt Q9RGF1)
Pm0188h = biological target: T1, Pm0188h (Pasteurella multocida, UniProt Q15KI8); experiment: Sialyltransferase kinetics, CMP release assay, transfer to lactose by Pm0188h
T1 sequence (Q15KI8 26-412): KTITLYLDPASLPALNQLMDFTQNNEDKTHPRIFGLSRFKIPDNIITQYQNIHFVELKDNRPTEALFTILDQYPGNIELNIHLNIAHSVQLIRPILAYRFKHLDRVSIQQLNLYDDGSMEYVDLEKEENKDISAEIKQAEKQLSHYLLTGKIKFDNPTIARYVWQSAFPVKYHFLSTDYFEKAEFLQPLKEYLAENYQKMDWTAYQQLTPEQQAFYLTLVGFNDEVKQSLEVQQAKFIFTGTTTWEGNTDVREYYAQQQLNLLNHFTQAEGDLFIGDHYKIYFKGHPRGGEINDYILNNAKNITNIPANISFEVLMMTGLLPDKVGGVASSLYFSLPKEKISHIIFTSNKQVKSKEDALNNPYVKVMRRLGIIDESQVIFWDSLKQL

[2] = biological target: C. perfringens (GH33) sialidase (NanI) (Clostridium perfringens, UniProt A0A0H2YQR1); assay type: biochemical
Sequence of C. perfringens (GH33) sialidase (NanI) (A0A0H2YQR1 1-694): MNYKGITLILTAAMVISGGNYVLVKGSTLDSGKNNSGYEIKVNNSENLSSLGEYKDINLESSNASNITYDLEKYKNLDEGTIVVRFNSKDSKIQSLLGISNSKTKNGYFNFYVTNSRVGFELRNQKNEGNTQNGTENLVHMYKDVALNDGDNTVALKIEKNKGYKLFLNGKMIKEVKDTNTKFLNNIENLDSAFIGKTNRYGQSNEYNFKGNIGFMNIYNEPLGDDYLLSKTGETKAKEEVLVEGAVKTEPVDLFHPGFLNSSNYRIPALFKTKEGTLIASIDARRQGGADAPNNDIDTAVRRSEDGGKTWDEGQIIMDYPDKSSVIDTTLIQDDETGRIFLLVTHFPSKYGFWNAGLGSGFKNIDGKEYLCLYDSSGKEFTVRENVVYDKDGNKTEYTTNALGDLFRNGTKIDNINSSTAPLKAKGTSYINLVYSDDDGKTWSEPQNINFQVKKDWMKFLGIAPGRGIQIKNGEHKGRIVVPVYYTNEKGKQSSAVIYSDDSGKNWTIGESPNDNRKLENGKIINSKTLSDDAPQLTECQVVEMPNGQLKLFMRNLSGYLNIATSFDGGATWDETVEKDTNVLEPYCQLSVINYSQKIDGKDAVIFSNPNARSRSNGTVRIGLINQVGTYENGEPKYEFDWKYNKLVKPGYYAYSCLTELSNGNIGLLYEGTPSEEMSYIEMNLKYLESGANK

[3] = biological target: influenza neuraminidase N9 (GH34) (Influenza A virus, UniProt P03472); assay type: biochemical; conditions: pH 5.9
Sequence of influenza neuraminidase N9 (GH34) (P03472 whole entry, looked up): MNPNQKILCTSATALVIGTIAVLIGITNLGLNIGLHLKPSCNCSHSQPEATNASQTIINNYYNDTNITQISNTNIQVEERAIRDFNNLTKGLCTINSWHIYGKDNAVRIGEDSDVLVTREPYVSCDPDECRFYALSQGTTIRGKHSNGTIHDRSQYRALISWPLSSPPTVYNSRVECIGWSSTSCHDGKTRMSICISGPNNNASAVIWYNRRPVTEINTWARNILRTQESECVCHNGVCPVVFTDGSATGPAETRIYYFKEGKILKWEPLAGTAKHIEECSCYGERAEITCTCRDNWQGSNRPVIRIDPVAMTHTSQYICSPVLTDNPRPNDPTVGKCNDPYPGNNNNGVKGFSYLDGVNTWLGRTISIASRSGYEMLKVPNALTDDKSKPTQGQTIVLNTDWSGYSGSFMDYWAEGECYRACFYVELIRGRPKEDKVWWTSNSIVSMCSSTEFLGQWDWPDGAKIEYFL

[4] = biological target: T2, T. rangeli (GH33) sialidase (TrSA) (Trypanosoma rangeli, UniProt O44049); experiment: Sialidase kinetics, β-galactosidase coupled assay, T. rangeli sialidase
T2 sequence (O44049 23-660): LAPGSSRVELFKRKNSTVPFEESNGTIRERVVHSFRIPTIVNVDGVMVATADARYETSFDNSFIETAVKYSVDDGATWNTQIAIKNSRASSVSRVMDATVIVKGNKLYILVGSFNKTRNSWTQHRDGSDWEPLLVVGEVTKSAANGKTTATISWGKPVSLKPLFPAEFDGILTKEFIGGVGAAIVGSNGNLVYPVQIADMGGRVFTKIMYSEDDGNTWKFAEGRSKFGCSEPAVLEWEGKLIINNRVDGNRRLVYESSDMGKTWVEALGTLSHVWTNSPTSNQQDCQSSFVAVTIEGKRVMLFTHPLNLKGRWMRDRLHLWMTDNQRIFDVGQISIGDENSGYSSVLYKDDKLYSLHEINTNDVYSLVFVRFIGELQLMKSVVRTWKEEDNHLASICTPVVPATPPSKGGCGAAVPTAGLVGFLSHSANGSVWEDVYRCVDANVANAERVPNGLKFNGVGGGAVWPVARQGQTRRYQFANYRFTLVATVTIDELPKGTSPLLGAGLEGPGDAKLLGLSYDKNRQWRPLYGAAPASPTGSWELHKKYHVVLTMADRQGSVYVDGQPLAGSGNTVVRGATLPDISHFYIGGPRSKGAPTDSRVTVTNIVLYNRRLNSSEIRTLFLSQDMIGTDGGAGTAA

[5] = Spontaneous hydrolysis of 7-modified sialyl-galactose conjugates by 1H-NMR; assay type: physicochemical; conditions: high salt, dilute acid (25 mM HCl)

Sequence of Cst-I (Q9RGF1 1-285 limits assumed): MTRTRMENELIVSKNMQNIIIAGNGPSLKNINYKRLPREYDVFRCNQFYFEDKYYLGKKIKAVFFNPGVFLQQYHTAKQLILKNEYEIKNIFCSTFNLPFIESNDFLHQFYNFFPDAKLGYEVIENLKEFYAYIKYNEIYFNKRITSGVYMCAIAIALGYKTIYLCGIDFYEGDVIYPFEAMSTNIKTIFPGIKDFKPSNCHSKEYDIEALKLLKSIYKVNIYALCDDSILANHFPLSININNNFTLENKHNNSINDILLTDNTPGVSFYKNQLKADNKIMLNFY

SMILES: CC(=O)N[C@H]1[C@H]([C@H](F)[C@H](O)CO)O[C@](OP(=O)(O)OC[C@H]2O[C@@H](n3ccc(N)nc3=O)[C@H](O)[C@@H]2O)(C(=O)O)C[C@@H]1O [compound 14, 5-Acetamido-3,5,7-trideoxy-2-(hydrogen 5′-cytidylate)-7-fluoro-D-glycero-b-D-galacto-2-nonulopyranosidic acid diammonium salt]
- krel [1]: 0.33
- Hydrolysis rate constant ([1]; pH 7.2): 0.313 (±0.002) h^−1
- kcat (rel) (Cst-I): 0.77
- kcat (rel) (Pm0188h): 0.54

SMILES: CC(=O)N[C@H]1[C@H](C(F)(F)[C@H](O)CO)O[C@](OP(=O)(O)OC[C@H]2O[C@@H](n3ccc(N)nc3=O)[C@H](O)[C@@H]2O)(C(=O)O)C[C@@H]1O [compound 15, 5-Acetamido-3,5,7-trideoxy-2-(hydrogen 5′-cytidylate)-7,7-difluoro-D-glycero-b-D-galacto-2-nonulopyranosidic acid diammonium salt]
- krel [1]: 0.01
- Hydrolysis rate constant ([1]; pH 7.2): 0.0084 (±0.0008) h^−1
- kcat (rel) (Cst-I): 0.25
- kcat (rel) (Pm0188h): 0.06

SMILES: CC(=O)N[C@H]1[C@H]([C@H](O)[C@H](O)CO)O[C@](OP(=O)(O)OC[C@H]2O[C@@H](n3ccc(N)nc3=O)[C@H](O)[C@@H]2O)(C(=O)O)C[C@@H]1O [compound 16, CMP-NeuNAc, reference compound]
- krel ([1]; spontaneous hydrolysis rate relative to CMP-NeuNAc): 1
- Hydrolysis rate constant ([1]; spontaneous hydrolysis, high salt pH 7.2 buffer, 1H-NMR): 0.94 (±0.01) h^−1
- kcat (rel) (Cst-I): 1
- kcat (rel) (Pm0188h): 1

SMILES: CC(=O)N[C@H]1[C@H]([C@H](O)[C@H](O)CO)O[C@@](O[C@H]2[C@@H](O)[C@@H](CO)O[C@@H](Oc3ccccc3[N+](=O)[O-])[C@@H]2O)(C(=O)O)C[C@@H]1O [compound 17, ortho-Nitrophenyl (5-Acetamido-3,5-dideoxy-D-glycero-α-D-galacto-non2-ulopyranosylonic acid)-(2→3)-β-D-galactopyranoside, reference compound]
- Km ([2]; pH 6.7): 800 µM
- kcat ([2]; pH 6.7): 78 (±2) min^−1
- Km [3]: 830 µM
- Vm [3]: 17.5 (±0.5) μM min^−1
- kcat ([4]; sialidase substrate, 30° C., pH 6.0): 83 (±4) min^−1

SMILES: CC(=O)N[C@H]1[C@H]([C@H](F)[C@H](O)CO)O[C@@](O[C@H]2[C@@H](O)[C@@H](CO)O[C@@H](Oc3ccccc3[N+](=O)[O-])[C@@H]2O)(C(=O)O)C[C@@H]1O [compound 18, ortho-Nitrophenyl (5-Acetamido-3,5,7-trideoxy-7-fluoro-D-glycero-α-D-galacto-non2-ulopyranosylonic acid)-(2→3)-β-D-galactopyranoside]
- saturation of enzyme by substrate [2]: Saturation was not achieved
- Km [3]: 390 µM
- Vm [3]: 4.6 (±0.2) μM min^−1
- saturation of enzyme by substrate [4]: Saturation was not achieved

SMILES: CC(=O)NC1C(O)CC(OC2C(O)C(CO)OC(Oc3ccc4c(C)cc(=O)oc4c3)C2O)(C(=O)O)OC1C(O)C(O)CO [compound 19, 4-Methylumbelliferyl (5-acetamido-3,5-dideoxy-D-glycero-α-D-galacto-non2-ulopyranosylonic acid)-(2→3)-β-D-galactopyranoside, reference compound]
- spontaneous hydrolysis rate constant [5]: 1.45 (±0.8) h-1

SMILES: CC(=O)NC1C(O)CC(OC2C(O)C(CO)OC(Oc3ccc4c(C)cc(=O)oc4c3)C2O)(C(=O)O)OC1C(F)C(O)CO [compound 20, 4-Methylumbelliferyl (5-acetamido-3,5,7-trideoxy-7-fluoro-D-glycero-α-D-galacto-non2-ulopyranosylonic acid)-(23)-β-D-galactopyranoside]
- spontaneous hydrolysis rate constant [5]: 0.29 (±0.01) h-1
